In publication PMC10434283, “A Novel Two-Component Bacteriocin, Acidicin P, and Its Key Residues for Inhibiting Listeria monocytogenes by Targeting the Cell Membrane” (Microbiology Spectrum, 2023):

Key:
[1] = tested on: L. monocytogenes; assay: Agar well diffusion assay of the mutations; format: cell-based, Listeria monocytogenes; conditions: BHI agar, 10^5 CFU/mL, 40 μL peptide per well, 24 h at 30°C
Source text: (§1) The antimicrobial spectrum was investigated using the indicator strains Streptococcus agalactiae 10465, Listeria monocytogenes 1.10753, enterotoxigenic Escherichia coli K88, vancomycin-resistant Enterococcus faecalis V583, Salmonella enterica serovar Typhimurium 14028, methicillin-resistant Staphylococcus aureus, and Bacillus cereus 1.1846. L. monocytogenes 1.10753 was used for growth curve measurement with a microtiter plate assay system. The indicator (at 1 × 10^5 CFU/mL) and the peptide (at 2-fold dilutions) were added to a final volume of 200 μL in each well. The bacterial growth was monitored with Bioscreen C (OyGrowth Curves Ab Ltd.) at 600 nm at 30°C. The MIC was defined as the total amount of Adpα, Adpβ, and acidicin P (the complementary peptides combined with equal amounts) that inhibited the growth of the indicator strain. The agar well diffusion method was used to investigate the antimicrobial activity of the mutations. The L. monocytogenes was inoculated in a brain heart infusion (BHI) agar plate as an indicator at a concentration of 10^5 CFU/mL. The peptide mutants (40 μL) were added to the wells (5 mm), and the plates were incubated for 24 h at 30°C.

[2] = tested on: Listeria monocytogenes 1.10753; assay: MIC by microtiter plate growth curve assay; format: cell-based; conditions: for growth rate of L. monocytogenes: peptide individually, at any concentration; for MIC: microtiter growth curve, 1 × 10^5 CFU/mL, 30°C, 600 nm
Source text: as §1

[3] = tested on: L. monocytogenes cell membrane; assay: Cytoplasmic membrane permeability assay with propidium iodide; format: cell-based, Listeria monocytogenes; conditions: positive control, 1× MIC
Method: Pretreatment of L. monocytogenes cells for the cytoplasmic membrane permeability assay was similar to that for the PMF assay. The cells were resuspended in 1 mL PBS and treated with different concentrations of acidicin P at 30°C for 30 min. The treated cells were stained with 10 μg/mL propidium iodide (PI, Bioss) in the dark for 15 min. Emission spectra of the mixture were recorded at 615 nm upon excitation at 535 nm with a Synergy H4 device (BioTek).

ANKMAYNVGKAISRIMRRVR [R1A (Adpα)-D12A (Adpβ), acidicin P mutant pair]
antimicrobial activity compared to the wild type [1]: no detrimental effect

KKKRGFWYHVGDAVTSFGRGFASAFG [Adpβ, 26-residue mature β peptide of the two-component bacteriocin acidicin P, obtained by solid-phase peptide synthesis]
growth rate of L. monocytogenes [2]: not affected | MIC ([2]; ratio α:β 0:1 (Adpβ alone)): / (No antimicrobial activity observed in the range of 1.56 to 200 μg/mL acidicin P)

RNKMAYAVGKAISAIMRRVR [N7A//R14A (Adpα)-D12A//S16A//R19A (Adpβ), acidicin P mutant pair: Adpα N7A, R14A with Adpβ D12A, S16A, R19A]
antimicrobial activity compared to the wild type [1]: significantly decreased

RNKMAYAVGKAISRIMRRVR [N7A (Adpα)-S16A//R19A (Adpβ), acidicin P mutant pair: Adpα N7A with Adpβ S16A, R19A]
antimicrobial activity compared to the wild type [1]: significantly decreased

RNKMAYNVGKAISAIMRRVR [R14A (Adpα)-D12A (Adpβ), acidicin P mutant pair: Adpα R14A with Adpβ D12A]
antimicrobial activity compared to the wild type [1]: significantly decreased

RNKMAYNVGKAISRIMRAVR [R18A (Adpα)-K2A (Adpβ), acidicin P mutant pair: Adpα R18A with Adpβ K2A]
antimicrobial activity compared to the wild type [1]: no detrimental effect

RNKMAYNVGKAISRIMRRVR [Adpα, 20-residue mature α peptide of the two-component bacteriocin acidicin P, obtained by solid-phase peptide synthesis]
growth rate of L. monocytogenes [2]: not affected | MIC ([2]; ratio α:β 1:0 (Adpα alone)): / (No antimicrobial activity observed in the range of 1.56 to 200 μg/mL acidicin P)

RNKMIYNVIKAISRIMRRVR [A5I//G9I (Adpα)-S16I//G20I (Adpβ), acidicin P mutant pair: Adpα A5I, G9I with Adpβ S16I, G20I]
antimicrobial activity compared to the wild type [1]: significantly decreased | bactericidal zone [1]: no bactericidal zone was observed

nisin
PI fluorescence versus untreated cells [3]: higher fluorescence
